Laboratory results from patent publication US20150225369A1, “DDR2 INHIBITORS FOR THE TREATMENT OF OSTEOARTHRITIS” (Merck Patent GmbH, priority 2012, published 2015).

Columns and labels:
[1] = target: T1, His-tagged human recombinant DDR-2 kinase domain (His-TEV-DDR2 467-855 aa) (Homo sapiens, UniProt Q16832); test: Autophosphorylation assay for biochemical activity testing of DDR2 (HTRF); details: 4 nM DDR2 kinase domain, 150 μM ATP, 150 min at 22° C.
T1 construct: His-TEV-DDR2 467-855 aa
T1 sequence (Q16832 467-855): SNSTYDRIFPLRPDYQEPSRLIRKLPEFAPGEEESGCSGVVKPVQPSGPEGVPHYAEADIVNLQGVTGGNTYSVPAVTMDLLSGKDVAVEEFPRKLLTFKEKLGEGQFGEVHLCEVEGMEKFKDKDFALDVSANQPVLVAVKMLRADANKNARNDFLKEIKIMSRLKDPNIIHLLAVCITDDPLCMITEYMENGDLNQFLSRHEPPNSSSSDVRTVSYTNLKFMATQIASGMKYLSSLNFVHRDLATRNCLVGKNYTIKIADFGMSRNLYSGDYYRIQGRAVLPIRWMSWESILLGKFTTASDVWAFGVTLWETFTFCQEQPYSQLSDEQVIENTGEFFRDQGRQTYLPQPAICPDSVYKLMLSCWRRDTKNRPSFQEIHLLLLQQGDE
How it was run: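 Phospho-tyrosine was detected by HTRF between XL665 anti-6His and cryptate anti-phosphotyrosine PT66 antibodies, using the emission ratio. Inhibition was referenced to the inhibitor-free reaction.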

[2] = target: T2, HEK293 transfected with human DDR2 (Homo sapiens, UniProt Q16832); test: Phospho-DDR2 cellular assay (collagen II induced DDR2 phosphorylation, ELISA); type: cell-based; details: HEK293 transfected with human DDR2, 50 μg/ml chicken collagen II, 16 h; read-out: IC50 [p-DDR2]
T2 construct: expressed in transfected cells; host or cells: HEK293 (PLT460F_(DDR2)-P7-1)
T2 sequence (Q16832 22-855): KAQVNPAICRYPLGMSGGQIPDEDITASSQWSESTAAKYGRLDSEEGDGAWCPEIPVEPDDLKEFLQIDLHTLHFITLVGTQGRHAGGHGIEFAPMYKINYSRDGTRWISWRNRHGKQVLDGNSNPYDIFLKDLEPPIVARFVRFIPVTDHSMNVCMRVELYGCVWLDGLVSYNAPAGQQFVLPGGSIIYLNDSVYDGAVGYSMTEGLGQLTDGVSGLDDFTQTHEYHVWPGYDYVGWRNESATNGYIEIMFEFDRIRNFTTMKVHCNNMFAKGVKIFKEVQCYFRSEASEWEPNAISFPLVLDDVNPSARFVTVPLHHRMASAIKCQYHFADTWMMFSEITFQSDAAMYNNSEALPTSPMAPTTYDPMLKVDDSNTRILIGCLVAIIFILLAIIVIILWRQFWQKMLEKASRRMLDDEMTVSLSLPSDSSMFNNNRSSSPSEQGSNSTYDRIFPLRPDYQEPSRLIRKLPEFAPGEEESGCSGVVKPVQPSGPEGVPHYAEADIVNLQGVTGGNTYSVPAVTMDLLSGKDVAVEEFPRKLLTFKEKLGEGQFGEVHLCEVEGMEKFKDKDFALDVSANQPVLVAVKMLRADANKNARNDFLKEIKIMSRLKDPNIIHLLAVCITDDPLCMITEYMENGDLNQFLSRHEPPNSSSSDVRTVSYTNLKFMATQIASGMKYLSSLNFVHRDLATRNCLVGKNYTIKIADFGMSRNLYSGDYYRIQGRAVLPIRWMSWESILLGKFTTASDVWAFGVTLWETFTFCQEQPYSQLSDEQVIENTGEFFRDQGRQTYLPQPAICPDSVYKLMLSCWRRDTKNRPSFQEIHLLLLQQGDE
How it was run: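 Cells seeded 48 h in 10% FBS, serum-starved 8 h, then given compound (5% DMSO) with 50 μg/ml chicken collagen II for 16 h at 37 °C. Lysates captured on anti-DDR2 antibody plates; phospho-DDR2 detected with HRP anti-phosphotyrosine antibody by chemiluminescence.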

Compound	IC50 [1]	IC50 [2]
COc1ncc(Cl)cc1NC(=O)NCc1ccc(Oc2ccnc(C)c2)c(C)c1 [compound 28]	110 nM	17 nM
CNC(=O)c1cc(Oc2ccc(CNC(=O)Nc3cc(C)cnc3OC)cc2)ccn1 [compound 19]	63 nM	24 nM
CNC(=O)c1cc(Oc2ccc(CNC(=O)Nc3cc(C(F)(F)F)cn(C)c3=O)cc2)ccn1 [compound 8]	97 nM	28 nM
Cc1cc(Oc2ccc(CNC(=O)Nc3cc(C(F)(F)F)cn(C)c3=O)cc2C)ccn1 [compound 6]	110 nM	30 nM
CNC(=O)c1cc(Oc2ccc(CNC(=O)Nc3cc(C(F)(F)F)cn(C)c3=O)cc2C)ccn1 [compound 7]	37 nM	12 nM
CNC(=O)c1cc(Oc2ccc(CNC(=O)Nc3cc(Cl)cnc3OC)cc2C)ccn1 [compound 23]	37 nM	6.8 nM
CNC(=O)c1cc(Oc2ccc(CNC(=O)Nc3cc(Cl)cnc3OC)cc2)ccn1 [compound 21]	44 nM	14 nM
Cc1cc(Oc2ccc(CNC(=O)Nc3cc(C(F)(F)F)cnc3Cl)cc2C)ccn1 [compound 30]	100 nM	60 nM
COc1ncc(C)cc1NC(=O)NCc1ccc(Oc2ccncc2)cc1 [compound 18]	100 nM	30 nM
CNC(=O)c1cc(Oc2ccc(CNC(=O)Nc3cc(C(F)(F)F)cnc3Cl)cc2C)ccn1 [compound 26]	52 nM	43 nM
